According to ChEMBL document CHEMBL1201862, “PubChem BioAssay data set” (2004):
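Following 48 hours of exposure in 96-well plates, responses at five concentrations were used to interpolate endpoints linearly. Here, GI50 denotes the concentration required for 50% inhibition of growth.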 Calls of active or inactive are those of the source. Rule as the data show it: active = GI50 up to about 1.1 µM and inactive = higher.

Assays:
Experiment in all cases: NCI tumour cell line growth inhibition, 48 h
786-0 = system: 786-0
A498 = system: A498
A549 = system: A549
ACHN = system: ACHN
BT-549 = system: BT-549
CAKI-1 = system: CAKI-1
CCRF-CEM = system: CCRF-CEM
COLO 205 = system: COLO 205
DU-145 = system: DU-145
EKVX = system: EKVX
HCC 2998 = system: HCC 2998
HCT-116 = system: HCT-116
HCT-15 = system: HCT-15
HL-60 = system: HL-60
HOP-62 = system: HOP-62
HOP-92 = system: HOP-92
HT-29 = system: HT-29
Hs-578T = system: Hs-578T
IGROV-1 = system: IGROV-1
K562 = system: K562
KM12 = system: KM12
LOX IMVI = system: LOX IMVI
M14 = system: M14
MCF7 = system: MCF7
MDA-MB-231 = system: MDA-MB-231
MDA-MB-435 = system: MDA-MB-435
MDA-N = system: MDA-N
MOLT-4 = system: MOLT-4
Malme-3M = system: Malme-3M
NCI-H226 = system: NCI-H226
NCI-H23 = system: NCI-H23
NCI-H460 = system: NCI-H460
NCI-H522 = system: NCI-H522
NCI/ADR-RES = system: NCI/ADR-RES
OVCAR-3 = system: OVCAR-3
OVCAR-4 = system: OVCAR-4
OVCAR-5 = system: OVCAR-5
OVCAR-8 = system: OVCAR-8
PC-3 = system: PC-3
RPMI-8226 = system: RPMI-8226
RXF 393 = system: RXF 393
SF-268 = system: SF-268
SF-295 = system: SF-295
SF-539 = system: SF-539
SK-MEL-28 = system: SK-MEL-28
SK-MEL-2 = system: SK-MEL-2
SK-MEL-5 = system: SK-MEL-5
SK-OV-3 = system: SK-OV-3
SN12C = system: SN12C
SNB-19 = system: SNB-19
SNB-75 = system: SNB-75
SR = system: SR
SW-620 = system: SW-620
T47D = system: T47D
TK-10 = system: TK-10
U-251 = system: U-251
UACC-257 = system: UACC-257
UACC-62 = system: UACC-62
UO-31 = system: UO-31

With `CC(C)(CN1CCCCC1)C(/C=C/c1ccc(Cl)cc1)=N\NC(=O)N/N=C(/C=C/c1ccc(Cl)cc1)C(C)(C)CN1CCCCC1` the GI50 (786-0) was 2.76 µM (inactive), the GI50 (A498) was 7.69 µM (inactive) and the GI50 (A549) was 7.28 µM (inactive). The GI50 (ACHN) was 3.82 µM (inactive), the GI50 (BT-549) was 3.59 µM (inactive) and the GI50 (CAKI-1) was 2.39 µM (inactive). For the same molecule, the GI50 (CCRF-CEM) was 2.64 µM (inactive), the GI50 (COLO 205) was 4.22 µM (inactive) and the GI50 (DU-145) was 6.01 µM (inactive). The GI50 (EKVX) was 5.4 µM (inactive), the GI50 (HCC 2998) was 5.51 µM (inactive) and the GI50 (HCT-116) was 3.19 µM (inactive). The GI50 (HCT-15) was 2.47 µM, the GI50 (HL-60) was 2.33 µM (inactive) and the GI50 (HOP-62) was 4.42 µM (inactive). The GI50 (HOP-92) was 2.38 µM (inactive), the GI50 (HT-29) was 3.58 µM (inactive) and the GI50 (Hs-578T) was 5.9 µM (inactive). For the same molecule, the GI50 (IGROV-1) was 2.98 µM (inactive), the GI50 (K562) was 3.39 µM (inactive) and the GI50 (KM12) was 3.24 µM (inactive). For the same molecule, the GI50 (LOX IMVI) was 2.3 µM (inactive), the GI50 (M14) was 3.41 µM (inactive) and the GI50 (MCF7) was 4.02 µM (inactive). For the same molecule, the GI50 (MDA-MB-231) was 2.65 µM (inactive), the GI50 (MDA-MB-435) was 3.55 µM (inactive) and the GI50 (MDA-N) was 3.34 µM (inactive). The GI50 (MOLT-4) was 3.11 µM (inactive), the GI50 (Malme-3M) was 8.38 µM (inactive) and the GI50 (NCI-H226) was 4.58 µM (inactive). For the same molecule, the GI50 (NCI-H23) was 2.92 µM (inactive), the GI50 (NCI-H460) was 3.21 µM (inactive) and the GI50 (NCI-H522) was 2.41 µM (inactive). For the same molecule, the GI50 (NCI/ADR-RES) was 3.86 µM (inactive), the GI50 (OVCAR-3) was 3.21 µM (inactive) and the GI50 (OVCAR-4) was 2.86 µM (inactive). The GI50 (OVCAR-5) was 3.95 µM (inactive), the GI50 (OVCAR-8) was 4.38 µM (inactive) and the GI50 (PC-3) was 7.24 µM (inactive). For the same molecule, the GI50 (RPMI-8226) was 5.98 µM (inactive), the GI50 (RXF 393) was 2.64 µM (inactive) and the GI50 (SF-268) was 5.46 µM (inactive). For the same molecule, the GI50 (SF-295) was 10 µM (inactive), the GI50 (SF-539) was 3.44 µM (inactive) and the GI50 (SK-MEL-28) was 9.77 µM (inactive). For the same molecule, the GI50 (SK-MEL-2) was 8.69 µM (inactive), the GI50 (SK-MEL-5) was 5.14 µM (inactive) and the GI50 (SK-OV-3) was 6.68 µM (inactive). The GI50 (SN12C) was 3.85 µM (inactive), the GI50 (SNB-19) was 3.4 µM (inactive) and the GI50 (SNB-75) was 1.85 µM (inactive). For the same molecule, the GI50 (SR) was 2.7 µM (inactive), the GI50 (SW-620) was 2.72 µM (inactive) and the GI50 (T47D) was 3.44 µM (inactive). For the same molecule, the GI50 (TK-10) was 10.5 µM (inactive), the GI50 (U-251) was 3.37 µM (inactive) and the GI50 (UACC-257) was 5.05 µM (inactive). The GI50 (UACC-62) was 3.53 µM (inactive) and the GI50 (UO-31) was 3.49 µM (inactive).
